Assay results taken from paper PMC7307906, “Macrocyclic Modalities Combining Peptide Epitopes and Natural Product Fragments” (Journal of the American Chemical Society, 2020).
Like-named read-outs stand apart in the source and are kept apart here. Bridges are numbered along the chain shown (N, C = ends). Where no end group is shown, it is not given here. [ ]: non-standard residue; d: D form. pyrrolidinyl‑spirobarbiturate (VII) = not defined here; N‑phenyl fused di‑pyrrolidine (II) = not defined here; N‑methyl fused di‑pyrrolidine (I) = not defined here; NMeF = CN[C@@H](Cc1ccccc1)C(=O)O; NMeL = CN[C@@H](CC(C)C)C(=O)O

Key:
[1] = target: T1, Recombinant human SPSB2 (Homo sapiens, UniProt Q99619); assay: Surface plasmon resonance (SPR) binding to immobilized hSPSB2; conditions: for Kd: hSPSB2, mean ± SEM of three independent experiments; for fold improved binding affinity compared to disulfide-bridged peptide 24: hSPSB2, versus 24; for fold loss of binding for the minor diastereomer: SPR KD, hSPSB2, minor versus major diastereomer
T1 construct: purchased Abcam ab134592
T1 sequence (Q99619 1-263): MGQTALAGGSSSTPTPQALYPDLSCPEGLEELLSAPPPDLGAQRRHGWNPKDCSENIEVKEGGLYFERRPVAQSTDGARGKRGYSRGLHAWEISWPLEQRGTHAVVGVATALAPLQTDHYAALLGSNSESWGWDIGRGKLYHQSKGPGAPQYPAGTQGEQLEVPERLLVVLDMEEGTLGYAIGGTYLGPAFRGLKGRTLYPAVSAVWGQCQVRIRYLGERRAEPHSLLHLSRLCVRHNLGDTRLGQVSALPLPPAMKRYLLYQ
Procedure: Example sensorgrams for selected PepNats D1−D4, D7, D8, D10, D12 and D18 interacting with immobilized hSPSB2 using SPR (red). Each PepNat was injected at 0.020 µM, 0.078 µM, 0.313 µM, 1.25 µM and 5 µM concentration in quick succession followed by a longer dissociation time. A binding kinetic model was fitted to each experimental trace (black). All experiments were conducted in triplicates. […]
to the elution profile of the crude product . The relevant fractions containing the desired product were collected, analyzed by RP-HPLC-MS and accordingly pooled and lyophilized.
HRMS were obtained on a Thermo Scientific LTQ Fleet Orbitrap mass spectrometer coupled to an Accela HPLC-System (HPLC column: Hypersyl GOLD, 50 mm x 1 mm, particle size 1.9 μm) equipped with an electron spray ionization source (ESI). The mass detection was recorded in the range of […]
2) B) Biochemical Assays Materials and Methods
Surface Plasmon Resonance (SPR)
All SPR experiments were conducted on a Biacore T200, S200 or 8K instrument (GE Healthcare) at 20 °C using HBS-P+ as running buffer (GE Healthcare). A CM5 sensor chip (GE Healthcare) was conditioned three times at 60 s using 50 mM NaOH, 1 M NaCl prior to standard NHS/EDC activation (e.g. amine coupling in the Biacore instruction manual) of the sensor surface for 420 s.
Recombinant human SPSB2 (product ID: ab134592, Abcam, Cambridge, UK) was diluted to 200 nM using 10 mM Sodium acetate pH 5. 5 and injected over the activated surface for 300 s. This surface and a surface subjected to only NHS/EDC activation were deactivated using 100 mM Tris -HCl, pH 8.0. The empty surface was used as a reference surface.
All PepNat and peptide reference interac tion experiments were conducted by diluting 10 mM DMSO stocks of PepNats and peptide references using digital dispensing (Tecan) to 10 µM, 2.5 µM, 625 nM, 156 nM and 40 nM or 1 µM, 250 nM, 63 nM, 16 nM and 4 nM. All concentrations were serially injected ov er both the SPSB2 containing - and empty surfaces using single -cycle kinetics (GE Healthcare). The resulting sensorgrams were reference - and blank subtracted prior to fitting of the data using a binding kinetic model (Biacore evaluation software).
DNA constructs, cell culturing, transfections and generation of stable cell lines DNA constructs and cell lines were employed as previously described by Durek et al.7 “cDNAs encoding human MC1 (Genbank accession number NM_002386), MC3 (NM_019888), and MC4 (NM_005912) and MC5 (NM_005913) were cloned into the pcDNA4/TO vector (ThermoFisher). In the constructs, a consensus Kozak sequence (GCCACC) was incorporated immediately before the start ATG. DNA was amplified, isolated and sequenced using standard techniques.
T-Rex™-293 cells (ThermoFisher) were cultured in DMEM medium, supplemented with 10% foetal bovine serum and 5 µg/ml blasticidin at 37°C in a humidified atmosphere with 10% CO2.
Lipofectamine 2000 (ThermoFisher) was used for transfections according to the manufacturer’s recommendations. Resistant polyclonal populations were generated by selection with Zeocin (0.3 mg/ml, ThermoFisher) for about two weeks after transfection. Individual clones were iso lated using flow cytometry, subsequently expanded, tested for responsiveness to [Nle 4, DPhe7]-α-Melanocyte Stimulating Hormone (NDP-α-MSH) and cryopreserved.” To induce receptor

[2] = the molecule shown is the open-chain precursor, amine bond, 37-membered ring, then NaBH3CN, DMF, resin, 25.0 °C
[3] = the molecule shown is the open-chain precursor, other bond, 37-membered ring, CH(OMe)3/Et3N, DMF, THF, resin, 25.0 °C, with chain assembly
[4] = target: T2, SPSB2 (Homo sapiens, UniProt Q99619); assay: SPR
T2 chain: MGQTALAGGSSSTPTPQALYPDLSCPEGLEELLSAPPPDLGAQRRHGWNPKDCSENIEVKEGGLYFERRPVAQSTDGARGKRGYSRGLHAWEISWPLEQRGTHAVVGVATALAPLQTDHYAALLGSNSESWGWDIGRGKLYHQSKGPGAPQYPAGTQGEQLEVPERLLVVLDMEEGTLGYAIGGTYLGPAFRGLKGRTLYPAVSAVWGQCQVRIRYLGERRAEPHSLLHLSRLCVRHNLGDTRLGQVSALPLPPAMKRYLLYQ

## CC[C@H](C)[C@@H]1NC(=O)[C@H](CC(=O)O)NC(=O)[C@H](Cc2ccccc2)N(C)C(=O)[C@H]2N[C@@H](c3ccc(cc3)C(=O)NCCCC[C@@H](C(=O)NCC(N)=O)NC(=O)[C@H](CC(N)=O)NC(=O)[C@H](CC(N)=O)NC(=O)[C@H](CC(N)=O)NC1=O)[C@@H](C(=O)OC)[C@H]2C(=O)OC [D4-minor, [IV-FDINNNK ]G]
[1]; SPR, hSPSB2
  binding to SPSB2 (in words): did not bind
[1]; SPR
  Kd: > 10000 nM

## CC[C@H](C)[C@@H]1NC(=O)[C@H](CC(=O)O)NC(=O)[C@H](Cc2ccccc2)N(C)C(=O)[C@@H]2N[C@H](c3ccc(cc3)C(=O)NCCCC[C@@H](C(=O)NCC(N)=O)NC(=O)[C@H](CC(N)=O)NC(=O)[C@H](CC(N)=O)NC(=O)[C@H](CC(N)=O)NC1=O)C1(C(=O)N(C)C(=O)N(C)C1=O)[C@H]2c1ccccc1 [D7-major, [VII-FDINNNK ]G]
[1]; ratio of SPR KD
  fold improved binding affinity compared to disulfide-bridged peptide 24: 4 fold
[1]; ratio of SPR KD, hSPSB2, versus 26
  fold higher affinity compared to ortho ether aromatic unit analogue 26: 46 fold

## CC[C@H](C)[C@@H]1NC(=O)[C@H](CC(=O)O)NC(=O)[C@H](Cc2ccccc2)N(C)C(=O)[C@@H]2N[C@H](c3ccc(cc3)C(=O)NCCC[C@@H](C(=O)NCC(N)=O)NC(=O)[C@H](CC(N)=O)NC(=O)[C@H](CC(N)=O)NC(=O)[C@H](CC(N)=O)NC1=O)[C@@H]1C(=O)N(C)C(=O)[C@@H]12 [D8-major, [I-FDINNNOrn ]G]
[1]; SPR
  Kd: 282 ± 93 nM

## CC[C@H](C)[C@@H]1NC(=O)[C@H](CC(=O)O)NC(=O)[C@H](Cc2ccccc2)N(C)C(=O)[C@@H]2N[C@H](c3ccc(cc3)C(=O)NCC[C@@H](C(=O)NCC(N)=O)NC(=O)[C@H](CC(N)=O)NC(=O)[C@H](CC(N)=O)NC(=O)[C@H](CC(N)=O)NC1=O)[C@@H]1C(=O)N(C)C(=O)[C@@H]12 [D9-major, [I-FDINNNDab ]G]
[1]; SPR
  Kd: 66 ± 8 nM

## CC[C@H](C)[C@@H]1NC(=O)[C@H](CC(=O)O)NC(=O)[C@H](Cc2ccccc2)N(C)C(=O)[C@@H]2N[C@H](c3ccc(cc3)C(=O)NC[C@@H](C(=O)NCC(N)=O)NC(=O)[C@H](CC(N)=O)NC(=O)[C@H](CC(N)=O)NC(=O)[C@H](CC(N)=O)NC1=O)[C@@H]1C(=O)N(C)C(=O)[C@@H]12 [D10-major, [I-FDINNNDap ]G]
[1]; SPR
  Kd: 72 ± 16 nM

## CC[C@H](C)[C@@H]1NC(=O)[C@H](CC(=O)O)NC(=O)[C@H](C(C)C)N(C)C(=O)[C@H]2N[C@@H](c3ccc(cc3)C(=O)NCCCC[C@@H](C(=O)NCC(N)=O)NC(=O)[C@H](CC(N)=O)NC(=O)[C@H](CC(N)=O)NC(=O)[C@H](CC(N)=O)NC1=O)[C@H]1C(=O)N(C)C(=O)[C@H]12 [D13-minor, [I-VDINNNK ]G]
[1]
  fold loss of binding for the minor diastereomer: 5 fold

## CC[C@H](C)[C@@H]1NC(=O)[C@H](CC(=O)O)NC(=O)[C@@H](Cc2ccccc2)N(C)C(=O)[C@@H]2N[C@H](c3ccc(cc3)C(=O)NCCCC[C@@H](C(=O)NCC(N)=O)NC(=O)[C@H](CC(N)=O)NC(=O)[C@H](CC(N)=O)NC(=O)[C@H](CC(N)=O)NC1=O)[C@@H]1C(=O)N(C)C(=O)[C@@H]12 [D15-major, [I-fDINNNK ]G]
[1]; SPR
  Kd: > 10000 nM

## CC[C@H](C)[C@@H]1NC(=O)[C@H](CC(=O)O)NC(=O)[C@H](Cc2ccccc2)N(C)C(=O)[C@@H]2N[C@H](c3ccc(cc3)C(=O)NC[C@@H](C(=O)NCC(N)=O)NC(=O)[C@H](CC(N)=O)NC(=O)[C@H](CC(N)=O)NC(=O)[C@H](CC(N)=O)NC1=O)[C@@H]1C(=O)N(c3ccccc3)C(=O)[C@@H]12 [D17-major, [II-FDINNNDap ]G]
[1]; SPR
  Kd: 1080 ± 76 nM

## CC[C@H](C)[C@@H]1NC(=O)[C@H](CC(=O)O)NC(=O)[C@H](C(C)C)N(C)C(=O)[C@@H]2N[C@H](c3ccc(cc3)C(=O)NCCCC[C@@H](C(=O)NCC(N)=O)NC(=O)[C@H](CC(N)=O)NC(=O)[C@H](CC(N)=O)NC(=O)[C@H](CC(N)=O)NC1=O)[C@@H]1C(=O)N(c3ccccc3)C(=O)[C@@H]12 [D18-major, [II-VDINNNK ]G]
[1]; ratio of SPR KD
  fold improved binding affinity compared to disulfide-bridged peptide 24: 7 fold
[1]; ratio of SPR KD, hSPSB2, versus 25
  fold improved binding affinity compared to cyclic peptide 25: 36 fold
[1]; ratio of SPR KD, hSPSB2, versus 27
  fold better affinity than 27: 40 fold

## CC[C@H](C)[C@@H]1NC(=O)[C@H](CC(=O)O)NC(=O)[C@H](C(C)C)N(C)C(=O)[C@H]2N[C@@H](c3ccc(cc3)C(=O)NCCCC[C@@H](C(=O)NCC(N)=O)NC(=O)[C@H](CC(N)=O)NC(=O)[C@H](CC(N)=O)NC(=O)[C@H](CC(N)=O)NC1=O)[C@H]1C(=O)N(c3ccccc3)C(=O)[C@H]12 [D18-minor, [II-VDINNNK ]G]
[1]
  fold loss of binding for the minor diastereomer: 63 fold

## H-Gly-MePhe-Ala-Leu-Phe-Pro-Gly-Phe-Lys(4-formylbenzoyl)-Gly-resin
[2]; 1% AcOH
  ring closure, conversion: 91%
[2]; 5% AcOH
  ring closure, conversion: 99%
[2]; Et3N/4A MS
  ring closure, conversion: 4%
[3]; then 10/LiBr/Et3N
  ring closure, yield after HPLC: 14%
[3]; then 11/LiBr/Et3N
  ring closure, yield after HPLC: 8%

B1: PepNat D2-major (peptide)
chain: [NMeF]DINNNKG-NH2
modifications: bridge (positions not given here) via N‑phenyl fused di‑pyrrolidine (II); reading uncertain; also: macrocycle via N-phenyl fused di-pyrrolidine (II)
[4]
  Kd: 231 nM

B2: PepNat D12-major (peptide)
chain: [NMeL]DINNNKG-NH2
modifications: bridge (positions not given here) via N‑methyl fused di‑pyrrolidine (I); reading uncertain; also: macrocycle via N-methyl fused di-pyrrolidine (I)
[4]
  Kd: 10 nM

B3: PepNat D7-major (peptide)
chain: [NMeF]DINNNKG-NH2
modifications: bridge (positions not given here) via pyrrolidinyl‑spirobarbiturate (VII); reading uncertain; also: macrocycle via pyrrolidinyl-spirobarbiturate (VII)
[4]
  Kd: 3.8 nM

B4: iNOS peptide 23 (peptide)
chain: Ac-DINNN
[4]
  Kd: 237 nM

B5: cyclic peptide 24 (peptide)
chain: CVDINNNC
modifications: disulfide 1-8 (inferred)
[4]
  Kd: 16 nM
